The source of these data is PMC6497071 (Bioorganic & medicinal chemistry letters, 2018).

The structures appear in SMILES notation. Like-named read-outs stand apart in the source and are kept apart here.

For one test, the system named is K-562. The note with it: K-562 (Leukemia), five dose; cited from earlier work.
In a further test the test system is MV4-11 leukemia cells. The test is described as follows: MV4-11 leukemia cell viability. Type of test: cell-based, human.
Another test concerns HT29. Particulars: HT29 (Colon Cancer), five dose; cited from earlier work.
In the next test the test system is SNB-19. The note with it: SNB-19 (CNS Cancer), five dose; cited from earlier work.
The next test relates to OVCAR-3. The note with it: OVCAR-3 (Ovarian Cancer), five dose; cited from earlier work.
Another test concerns SNB-75. The note with it: SNB-75 (CNS Cancer), five dose; cited from earlier work.
The next test concerns SK-MEL-5. The note with it: SK-MEL-5 (Melanoma), five dose; cited from earlier work.
A further test concerns HCT-15. Particulars: HCT-15 (Colon Cancer), five dose; cited from earlier work.
The test system of a further test is NCI-H23. Particulars: NCI-H23 (Lung Cancer), five dose; cited from earlier work.
The next test has as its system HCC-2998. The note with it: HCC-2998 (Colon Cancer), five dose; cited from earlier work.
The subject of a further test is SK-MEL-2. Particulars: SK-MEL-2 (Melanoma), five dose; cited from earlier work.
Another test concerns SF-539. Particulars: SF-539 (CNS Cancer), five dose; cited from earlier work.
The next test concerns M14. The note with it: M14 (Melanoma), five dose; cited from earlier work.
The next test deals with HL-60(TB). Particulars: HL-60(TB) (Leukemia), five dose; cited from earlier work.
The next test deals with CAKI-1. Particulars: CAKI-1 (Renal Cancer), five dose; cited from earlier work.
In a further test the test system is MDA-MB-231/ATCC. The note with it: MDA-MB-231/ATCC (Breast Cancer), five dose; cited from earlier work.
In the next test the test system is HCT-116. Particulars: HCT-116 (Colon Cancer), five dose; cited from earlier work.
In the next test the test system is U251. Particulars: U251 (CNS Cancer), five dose; cited from earlier work.
A further test concerns HOP-62. Particulars: HOP-62 (Lung Cancer), five dose; cited from earlier work.
For another test, the system named is A498. Particulars: A498 (Renal Cancer), five dose; cited from earlier work.
In the next test the test system is KM12. Particulars: KM12 (Colon Cancer), five dose; cited from earlier work.
The next test relates to NCI/ADR-RES. Particulars: NCI/ADR-RES (Ovarian Cancer), five dose; cited from earlier work.
The test system of the next test is SW-620. Particulars: SW-620 (Colon Cancer), five dose; cited from earlier work.
The test system of another test is COLO 205. Particulars: COLO 205 (Colon Cancer), five dose; cited from earlier work.
Another test concerns SF-295. The note with it: SF-295 (CNS Cancer), five dose; cited from earlier work.
For a further test, the system named is CCRF-CEM. Particulars: CCRF-CEM (Leukemia), five dose; cited from earlier work.
Another test relates to SR. The note with it: SR (Leukemia), five dose; cited from earlier work.
Another test has as its system SK-MEL-28. Particulars: SK-MEL-28 (Melanoma), five dose; cited from earlier work.
The test system of a further test is UACC-62. Particulars: UACC-62 (Melanoma), five dose; cited from earlier work.
In another test the test system is SF-268. Particulars: SF-268 (CNS Cancer), five dose; cited from earlier work.
The test system of the next test is MCF7. Particulars: MCF7 (Breast Cancer), five dose; cited from earlier work.
The next test has as its system HOP-92. The note with it: HOP-92 (Lung Cancer), five dose; cited from earlier work.
Another test has as its system LOX IMVI. Particulars: LOX IMVI (Melanoma), five dose; cited from earlier work.
In the next test the test system is A549/ATCC. Particulars: A549/ATCC (Lung Cancer), five dose; cited from earlier work.
For a further test, the system named is MOLT-4. The note with it: MOLT-4 (Leukemia), five dose; cited from earlier work.
For another test, the system named is MDA-MB-468. Particulars: MDA-MB-468 (Breast Cancer), five dose; cited from earlier work.
In a further test the test system is RPMI-8226. Particulars: RPMI-8226 (Leukemia), five dose; cited from earlier work.
For test [1], the system named is panel of 60 human tumor cell lines. Particulars: against 87% of the cancer cell lines; cited from earlier work.
The test system of a further test is NCI-H522. The note with it: NCI-H522 (Lung Cancer), five dose; cited from earlier work.
For another test, the system named is UO-31. Particulars: UO-31 (Renal Cancer), five dose; cited from earlier work.
The subject of another test is HS 578T. Particulars: HS 578T (Breast Cancer), five dose; cited from earlier work.
The next test has as its system OVCAR-4. The note with it: OVCAR-4 (Ovarian Cancer), five dose; cited from earlier work.
Another test concerns IGROV1. Particulars: IGROV1 (Ovarian Cancer), five dose; cited from earlier work.
The next test relates to 786-0. Particulars: 786-0 (Renal Cancer), five dose; cited from earlier work.
The subject of another test is SK-OV-3. The note with it: SK-OV-3 (Ovarian Cancer), five dose; cited from earlier work.
Another test relates to MDA-MB-435. The note with it: MDA-MB-435 (Melanoma), five dose; cited from earlier work.
For another test, the system named is ACHN. The note with it: ACHN (Renal Cancer), five dose; cited from earlier work.
For another test, the system named is tubulin. The test is described as follows: tubulin polymerization cell-based immunoblot assay. The note with it: immunoblot of pellet and supernatant. (Immunoblotting shows a protein as a band on a membrane.)
In test [2] the test system is panel of 60 human tumor cell lines. The test is described as follows: NCI-60 five dose assay, whole panel summary. In kind it is cell-based.

The term GI50 denotes the concentration at which growth is held to half of that of the control. Turning to `COc1ccc(/C=C(\C#N)c2cc(OC)c(OC)c(OC)c2)cc1O` [Compound 5], the GI50 is < 10 nM in the test with K-562; 3.18 µM in the test on HT29; < 10 nM in the test on SNB-19; < 10 nM in the test with OVCAR-3; < 10 nM with SNB-75; < 10 nM in the test on SK-MEL-5. In addition, the GI50 in the test on HCT-15 is < 10 nM; with NCI-H23, < 10 nM; in the test with HCC-2998 it was 20 nM; with SK-MEL-2 it was < 10 nM; with SF-539 it was < 10 nM; in the test on M14, < 10 nM. Moreover, the GI50 in the test on HL-60(TB) is < 10 nM; with CAKI-1, 30 nM; in the test on MDA-MB-231/ATCC, < 10 nM; with HCT-116, < 10 nM; in the test on U251, 10 nM; with HOP-62, < 10 nM. In addition, the GI50 in the test on A498 was < 10 nM; in the test on KM12 it was < 10 nM; in the test with NCI/ADR-RES, < 10 nM; in the test with SW-620 it was < 10 nM; in the test on COLO 205, 2990 nM; in the test on SF-295, 50 nM. Besides, the GI50 in the test with CCRF-CEM is < 10 nM; in the test on SR, < 10 nM; in the test with SK-MEL-28 it was 1010 nM; in the test on UACC-62 it was < 10 nM; with SF-268 it was < 10 nM; with MCF7 it was < 10 nM. The GI50 with HOP-92, in the test on LOX IMVI, in the test with A549/ATCC, with MOLT-4, with MDA-MB-468 and in the test on RPMI-8226 was < 10 nM throughout. Further, the GI50 (in [1]; in the test with NCI-H522; in the test on UO-31; with HS 578T; in the test with OVCAR-4; in the test with IGROV1) was < 10 nM throughout. Further, the GI50 is < 10 nM in the test on 786-0, 10 nM in the test on SK-OV-3, < 10 nM in the test with MDA-MB-435 and < 10 nM in the test with ACHN. The “LD50 (48h)” value in the test with MV4-11 leukemia cells came out at 0.04 µM.

Turning to `COc1ccccc1/C=C(/c1cc(Br)cc(Br)c1)c1nnn[nH]1` [Compound 8c, (Z)-5-(1-(3,5-Dibromophenyl)-2-(2-methoxyphenyl)vinyl)-1H-tetrazole], in the test with MV4-11 leukemia cells, the “LD50 (24h)” value amounted to 28.8 µM and the “LD50 (48h)” value was 28.6 µM.

Turning to `COc1ccc(/C=C(/c2cc(OC)c(OC)c(OC)c2)c2nnn[nH]2)cc1` [Compound 8g, (Z)-5-(2-(4-Methoxyphenyl)-1-(3,4,5-trimethoxyphenyl)vinyl)-1H-tetrazole], in the test on MV4-11 leukemia cells, the “LD50 (24h)” value worked out at 4.60 µM and the “LD50 (48h)” value came out at 4.29 µM. The “fold less effective when compared with 8h” value in the test with MV4-11 leukemia cells (LD50 ratio) is reported as ~170 fold. Moreover, the “inhibition of tubulin polymerization” value with tubulin (1.0 μM and 2.0 μM) is given as “inhibited tubulin polymerization”. For the same compound, the “inhibition of tubulin polymerization” value with tubulin (2.0 μM) is “Significant inhibition”.

On to `COc1ccc(/C=C(/c2cc(OC)c(OC)c(OC)c2)c2nnn[nH]2)cc1O` [Compound 8h, (Z)-5-(2-(1H-Tetrazol-5-yl)-2-(3,4,5-trimethoxyphenyl)vinyl)-2-methoxyphenol], for which the “LD50 (24h)” value in the test with MV4-11 leukemia cells was 0.03 µM. For the same compound, in the test with MV4-11 leukemia cells, the “LD50 (48h)” value was 0.02 µM. The LD50 in the test on MV4-11 leukemia cells (time not stated in text (equals 24h value of Table 4)) was found to be 30 nM; in the test on MV4-11 leukemia cells (time not stated in text (equals 48h value of Table 4)), 20 nM. For the same compound, the “inhibition of tubulin polymerization” value with tubulin (1.0 μM and 2.0 μM) is listed as “inhibited tubulin polymerization”; with tubulin (2.0 μM), “Significant inhibition”. Besides, the GI50 in [2] (60 cell) was < 10 nM.

On to `COc1ccc(/C=C(/c2ccc([N+](=O)[O-])cc2)c2nnn[nH]2)c2ccccc12` [Compound 10a, (Z)-5-(2-(4-Methoxynaphthalen-1-yl)-1-(4-nitrophenyl)vinyl)-1H-tetrazole], for which the “LD50 (24h)” value in the test with MV4-11 leukemia cells came out at 1.46 µM. Besides, the “LD50 (48h)” value in the test on MV4-11 leukemia cells worked out at 1.39 µM. Besides, the “inhibition of tubulin polymerization” value with tubulin (1.0 μM and 2.0 μM) is listed as “inhibited tubulin polymerization”; with tubulin (2.0 μM), “Significant inhibition”.

For the compound `COc1ccc(/C(=C/c2ccc3ccccc3c2)c2nnn[nH]2)cc1OC` [Compound 10b, (Z)-5-(1-(3,4-Dimethoxyphenyl)-2-(naphthalen-2-yl)vinyl)-1H-tetrazole], the “LD50 (24h)” value in the test on MV4-11 leukemia cells is 1.08 µM. In the test on MV4-11 leukemia cells, the “LD50 (48h)” value was found to be 1.01 µM. In addition, the “inhibition of tubulin polymerization” value is on record as “inhibited tubulin polymerization” with tubulin (1.0 μM and 2.0 μM); “significantly less active” in the test with tubulin (2.0 μM). Besides, the GI50 in test [2] (against more than 30% of the human cancer cell lines) is < 2500 nM; in [2] (against only 15% of the cell lines in the panel) it was < 2000 nM.
